# Results reported in ChEMBL document CHEMBL3046208, “Natural and synthetic podolactones with potential use as natural herbicide models” (2000).
# Active and inactive are the calls of the source. No cut-off for these calls is given here.
# Legend:
# Allium cepa [1] = test: Stimulation of root length of Allium cepa (onion) at 0.1 mM after 5 days relative to untreated control; type: functional
# Hordeum vulgare [2] = test: Inhibition of germination of Hordeum vulgare (barley) at 0.1 mM after 5 days relative to untreated control; type: functional; details: 120 h
# Triticum aestivum [3] = test: Inhibition of shoot length of Triticum aestivum (wheat) at 0.1 mM after 5 days relative to untreated control; type: functional; details: 120 h
# Lepidium sativum [4] = test: Inhibition of shoot length of Lepidium sativum at 0.1 mM after 5 days relative to untreated control; type: functional; details: 120 h
# Solanum lycopersicum [5] = test: Stimulation of germination of Solanum lycopersicum (tomato) at 0.1 mM after 5 days relative to untreated control; type: functional
# Hordeum vulgare [6] = test: Stimulation of shoot length of Hordeum vulgare (barley) at 0.1 mM after 5 days relative to untreated control; type: functional
# Lepidium sativum [7] = test: Stimulation of root length of Lepidium sativum at 0.1 mM after 5 days relative to untreated control; type: functional
# Solanum lycopersicum [8] = test: Inhibition of germination of Solanum lycopersicum (tomato) at 10 uM after 5 days relative to untreated control; type: functional, organism-based
# Allium cepa [9] = test: Inhibition of root length of Allium cepa (onion) at 0.1 mM after 5 days relative to untreated control; type: functional; details: 120 h
# Solanum lycopersicum [10] = test: Inhibition of root length of Solanum lycopersicum (tomato) at 10 uM after 5 days relative to untreated control; type: functional, organism-based
# Triticum aestivum [11] = test: Stimulation of shoot length of Triticum aestivum (wheat) at 0.1 mM after 5 days relative to untreated control; type: functional
# Triticum aestivum [12] = test: Inhibition of root length of Triticum aestivum (wheat) at 0.1 mM after 5 days relative to untreated control; type: functional; details: 120 h
# Solanum lycopersicum [13] = test: Stimulation of root length of Solanum lycopersicum (tomato) at 0.1 mM after 5 days relative to untreated control; type: functional
# Lactuca sativa [14] = test: Stimulation of shoot length of Lactuca sativa cv. Nigra (lettuce) at 0.1 mM after 5 days relative to untreated control; type: functional
# Lepidium sativum [15] = test: Inhibition of germination of Lepidium sativum at 0.1 mM after 5 days relative to untreated control; type: functional; details: 120 h
# Triticum aestivum [16] = test: Stimulation of root length of Triticum aestivum (wheat) at 0.1 mM after 5 days relative to untreated control; type: functional
# Lepidium sativum [17] = test: Inhibition of germination of Lepidium sativum at 10 uM after 5 days relative to untreated control; type: functional, organism-based
# Lepidium sativum [18] = test: Inhibition of root length of Lepidium sativum at 10 uM after 5 days relative to untreated control; type: functional, organism-based
# Solanum lycopersicum [19] = test: Inhibition of shoot length of Solanum lycopersicum (tomato) at 0.1 mM after 5 days relative to untreated control; type: functional; details: 120 h
# Allium cepa [20] = test: Inhibition of germination of Allium cepa (onion) at 0.1 mM after 5 days relative to untreated control; type: functional; details: 120 h
# Triticum aestivum [21] = test: Stimulation of germination of Triticum aestivum (wheat) at 0.1 mM after 5 days relative to untreated control; type: functional
# Lepidium sativum [22] = test: Inhibition of root length of Lepidium sativum at 0.1 mM after 5 days relative to untreated control; type: functional; details: 120 h
# Lactuca sativa [23] = test: Inhibition of root length of Lactuca sativa cv. Roman (lettuce) at 0.1 mM after 5 days relative to untreated control; type: functional; details: 120 h
# Lepidium sativum [24] = test: Stimulation of germination of Lepidium sativum at 0.1 mM after 5 days relative to untreated control; type: functional
# Solanum lycopersicum [25] = test: Inhibition of germination of Solanum lycopersicum (tomato) at 0.1 mM after 5 days relative to untreated control; type: functional; details: 120 h
# Lepidium sativum [26] = test: Stimulation of shoot length of Lepidium sativum at 0.1 mM after 5 days relative to untreated control; type: functional
# Hordeum vulgare [27] = test: Stimulation of root length of Hordeum vulgare (barley) at 0.1 mM after 5 days relative to untreated control; type: functional
# Hordeum vulgare [28] = test: Inhibition of shoot length of Hordeum vulgare (barley) at 0.1 mM after 5 days relative to untreated control; type: functional; details: 120 h
# Lactuca sativa [29] = test: Inhibition of germination of Lactuca sativa cv. Nigra (lettuce) at 0.1 mM after 5 days relative to untreated control; type: functional
# Allium cepa [30] = test: Stimulation of shoot length of Allium cepa (onion) at 0.1 mM after 5 days relative to untreated control; type: functional
# Allium cepa [31] = test: Inhibition of shoot length of Allium cepa (onion) at 0.1 mM after 5 days relative to untreated control; type: functional; details: 120 h
# Lactuca sativa [32] = test: Inhibition of shoot length of Lactuca sativa cv. Roman (lettuce) at 0.1 mM after 5 days relative to untreated control; type: functional; details: 120 h
# Solanum lycopersicum [33] = test: Inhibition of shoot length of Solanum lycopersicum (tomato) at 10 uM after 5 days relative to untreated control; type: functional, organism-based
# Lactuca sativa [34] = test: Stimulation of germination of Lactuca sativa cv. Nigra (lettuce) at 0.1 mM after 5 days relative to untreated control; type: functional
# Lactuca sativa [35] = test: Inhibition of root length of Lactuca sativa cv. Nigra (lettuce) at 0.1 mM after 5 days relative to untreated control; type: functional; details: 120 h
# Lepidium sativum [36] = test: Inhibition of shoot length of Lepidium sativum at 10 uM after 5 days relative to untreated control; type: functional, organism-based
# Solanum lycopersicum [37] = test: Inhibition of root length of Solanum lycopersicum (tomato) at 0.1 mM after 5 days relative to untreated control; type: functional; details: 120 h
# Lactuca sativa [38] = test: Stimulation of root length of Lactuca sativa cv. Nigra (lettuce) at 0.1 mM after 5 days relative to untreated control; type: functional
# Hordeum vulgare [39] = test: Stimulation of germination of Hordeum vulgare (barley) at 0.1 mM after 5 days relative to untreated control; type: functional
# Allium cepa [40] = test: Stimulation of germination of Allium cepa (onion) at 0.1 mM after 5 days relative to untreated control; type: functional
# Lactuca sativa [41] = test: Inhibition of germination of Lactuca sativa cv. Roman (lettuce) at 0.1 mM after 5 days relative to untreated control; type: functional; details: 120 h
# Hordeum vulgare [42] = test: Inhibition of root length of Hordeum vulgare (barley) at 0.1 mM after 5 days relative to untreated control; type: functional; details: 120 h
# Lactuca sativa [43] = test: Stimulation of germination of Lactuca sativa cv. Roman (lettuce) at 0.1 mM after 5 days relative to untreated control; type: functional
# Lactuca sativa [44] = test: Stimulation of root length of Lactuca sativa cv. Roman (lettuce) at 0.1 mM after 5 days relative to untreated control; type: functional
# Triticum aestivum [45] = test: Inhibition of germination of Triticum aestivum (wheat) at 0.1 mM after 5 days relative to untreated control; type: functional
# Lactuca sativa [46] = test: Inhibition of shoot length of Lactuca sativa cv. Nigra (lettuce) at 0.1 mM after 5 days relative to untreated control; type: functional; details: 120 h
# Lactuca sativa [47] = test: Stimulation of shoot length of Lactuca sativa cv. Roman (lettuce) at 0.1 mM after 5 days relative to untreated control; type: functional
# Solanum lycopersicum [48] = test: Stimulation of shoot length of Solanum lycopersicum (tomato) at 0.1 mM after 5 days relative to untreated control; type: functional
compound,measurement,setting,value
C[C@@]12CCC[C@]3(C)C4=CC(=O)OCC4=C[C@@H](OC1=O)[C@@H]23,Activity,Allium cepa [1],>40%
same,inhibition at 100 µM,Hordeum vulgare [2],20%
same,inhibition at 100 µM,Triticum aestivum [3],< 20%
same,inhibition at 100 µM,Lepidium sativum [4],> 40%
same,Activity,Solanum lycopersicum [5],>40%
same,Activity,Hordeum vulgare [6],>40%
same,Activity,Lepidium sativum [7],>40%
same,inhibition,Solanum lycopersicum [8],Active
same,inhibition at 100 µM,Allium cepa [9],> 40%
same,inhibition,Solanum lycopersicum [10],Active
same,Activity,Triticum aestivum [11],<20%
same,inhibition at 100 µM,Triticum aestivum [12],20%
same,Activity,Solanum lycopersicum [13],>40%
same,Activity,Lactuca sativa [14],>40%
same,inhibition at 100 µM,Lepidium sativum [15],> 40%
same,Activity,Triticum aestivum [16],20%
same,inhibition,Lepidium sativum [17],Active
same,inhibition,Lepidium sativum [18],Active
same,inhibition at 100 µM,Solanum lycopersicum [19],> 40%
same,inhibition at 100 µM,Allium cepa [20],20%
same,Activity,Triticum aestivum [21],inactive
same,inhibition at 100 µM,Lepidium sativum [22],> 40%
same,inhibition at 100 µM,Lactuca sativa [23],> 40%
same,Activity,Lepidium sativum [24],>40%
same,inhibition at 100 µM,Solanum lycopersicum [25],> 40%
same,Activity,Lepidium sativum [26],>40%
same,Activity,Hordeum vulgare [27],>40%
same,inhibition at 100 µM,Hordeum vulgare [28],> 40%
same,inhibition,Lactuca sativa [29],inactive
same,Activity,Allium cepa [30],>40%
same,inhibition at 100 µM,Allium cepa [31],> 40%
same,inhibition at 100 µM,Lactuca sativa [32],> 40%
same,inhibition,Solanum lycopersicum [33],Active
same,Activity,Lactuca sativa [34],inactive
same,inhibition at 100 µM,Lactuca sativa [35],> 40%
same,inhibition,Lepidium sativum [36],Active
same,inhibition at 100 µM,Solanum lycopersicum [37],> 40%
same,Activity,Lactuca sativa [38],>40%
same,Activity,Hordeum vulgare [39],20%
same,Activity,Allium cepa [40],20%
same,inhibition at 100 µM,Lactuca sativa [41],20%
same,inhibition at 100 µM,Hordeum vulgare [42],> 40%
same,Activity,Lactuca sativa [43],20%
same,Activity,Lactuca sativa [44],>40%
same,inhibition,Triticum aestivum [45],inactive
same,inhibition at 100 µM,Lactuca sativa [46],> 40%
same,Activity,Lactuca sativa [47],>40%
same,Activity,Solanum lycopersicum [48],>40%
CO[C@H]1OC(=O)C=C2C1=C[C@H]1OC(=O)[C@@]3(C)CCC[C@@]2(C)[C@@H]13,Activity,Allium cepa [1],>40%
same,inhibition at 100 µM,Hordeum vulgare [2],> 40%
same,inhibition at 100 µM,Triticum aestivum [3],> 40%
same,inhibition at 100 µM,Lepidium sativum [4],> 40%
same,Activity,Solanum lycopersicum [5],>40%
same,Activity,Hordeum vulgare [6],>40%
same,Activity,Lepidium sativum [7],>40%
same,inhibition,Solanum lycopersicum [8],Active
same,inhibition at 100 µM,Allium cepa [9],> 40%
same,inhibition,Solanum lycopersicum [10],Active
same,Activity,Triticum aestivum [11],>40%
same,inhibition at 100 µM,Triticum aestivum [12],> 40%
same,Activity,Solanum lycopersicum [13],>40%
same,Activity,Lactuca sativa [14],>40%
same,inhibition at 100 µM,Lepidium sativum [15],20%
same,Activity,Triticum aestivum [16],>40%
same,inhibition,Lepidium sativum [17],Active
same,inhibition,Lepidium sativum [18],Active
same,inhibition at 100 µM,Solanum lycopersicum [19],> 40%
same,inhibition at 100 µM,Allium cepa [20],> 40%
same,Activity,Triticum aestivum [21],>40%
same,inhibition at 100 µM,Lepidium sativum [22],> 40%
same,inhibition at 100 µM,Lactuca sativa [23],> 40%
same,Activity,Lepidium sativum [24],20%
same,inhibition at 100 µM,Solanum lycopersicum [25],> 40%
same,Activity,Lepidium sativum [26],>40%
same,Activity,Hordeum vulgare [27],>40%
same,inhibition at 100 µM,Hordeum vulgare [28],> 40%
same,inhibition at 100 µM,Lactuca sativa [29]; 120 h,> 40%
same,Activity,Allium cepa [30],>40%
same,inhibition at 100 µM,Allium cepa [31],> 40%
same,inhibition at 100 µM,Lactuca sativa [32],> 40%
same,inhibition,Solanum lycopersicum [33],Active
same,Activity,Lactuca sativa [34],>40%
same,inhibition at 100 µM,Lactuca sativa [35],> 40%
same,inhibition,Lepidium sativum [36],Active
same,inhibition at 100 µM,Solanum lycopersicum [37],> 40%
same,Activity,Lactuca sativa [38],>40%
same,Activity,Hordeum vulgare [39],>40%
same,Activity,Allium cepa [40],>40%
same,inhibition at 100 µM,Lactuca sativa [41],> 40%
same,inhibition at 100 µM,Hordeum vulgare [42],> 40%
same,Activity,Lactuca sativa [43],>40%
same,Activity,Lactuca sativa [44],>40%
same,inhibition at 100 µM,Triticum aestivum [45]; 120 h,> 40%
same,inhibition at 100 µM,Lactuca sativa [46],> 40%
same,Activity,Lactuca sativa [47],>40%
same,Activity,Solanum lycopersicum [48],>40%
